The numbers were not newly measured in US12251426B2 (priority 2020, dated 2025), which cites them from elsewhere.

One data set has as its system influenza A virus. The conditions noted are these: in vitro.
In data set [1] the test system is human coronavirus NL63 (HCoV-NL63). The conditions noted are these: in vivo study (so in the source).
Another data set deals with SARS-CoV 3CLpro (Severe acute respiratory syndrome coronavirus, UniProt P0C6X7).
The subject of the next data set is phospholipase A2 (PLA2). Conditions: in vitro.
In the next data set the target is SARS-CoV-2 PLpro (Severe acute respiratory syndrome coronavirus 2, UniProt P0DTD1).
The conditions of data set [2]: normal intake.
The next data set has as its target helicase (Severe acute respiratory syndrome coronavirus 2, UniProt P0DTD1).
The target of a further data set is 3CLpro (Severe acute respiratory syndrome coronavirus 2, UniProt P0DTD1).
In a further data set the target is S2 subunit of SARS-CoV (Severe acute respiratory syndrome coronavirus, UniProt P59594).
Data set [3] addresses SARS-CoV-2 S-protein/ACE2 receptor interface (UniProt P0DTC2+Q9BYF1).
In the next data set the target is SARS-CoV RdRp (Severe acute respiratory syndrome coronavirus, UniProt P0C6X7).
Another data set concerns the target SARS-CoV PLpro (Severe acute respiratory syndrome coronavirus, UniProt P0C6X7).
For data set [4], the target named is SARS-CoV helicase protein (Severe acute respiratory syndrome coronavirus, UniProt P0C6X7).
The next data set relates to T lymphocytes. The conditions noted are these: in vitro, exogenous.
The test system of data set [5] is alveolar epithelial lining surface. The conditions noted are these: acute lung injury caused by sepsis in mice.
In the next data set the test system is macrophages. Conditions: in vitro.

For `O=C(O)/C=C/c1ccc(O)c(O)c1` [Caffeic acid, caffeic acid], the water solubility result is “slightly water-soluble”. In the data set with influenza A virus, the “inhibitory effect on replication of influenza A virus” value is “highly inhibitory effect”. In data set [1], the “inhibition of HCoV-NL63” value is given as “blocking virus attachment”.
For the molecule `O=C(O[C@@H]1Cc2c(O)cc(O)cc2O[C@@H]1c1cc(O)c(O)c(O)c1)c1cc(O)c(O)c(O)c1` [EGCG, epigallocatechin gallate], on SARS-CoV 3CLpro, the “inhibition of SARS-CoV 3CLpro” value is “inhibits”. Also, in the data set on phospholipase A2 (PLA2), the “inhibition of PLA2” value is given as “inhibit”. The “binding affinity to SARS-CoV-2 PLpro” value on SARS-CoV-2 PLpro is listed as “strong binding affinity”.
Consider `COc1ccc([C@@H]2CC(=O)c3c(O)cc(O[C@@H]4O[C@H](CO[C@@H]5O[C@@H](C)[C@H](O)[C@@H](O)[C@H]5O)[C@@H](O)[C@H](O)[C@H]4O)cc3O2)cc1O` [Hesperidin, hesperidin], for which the signs of toxicity entry in data set [2] is reported as “No signs of toxicity”. At helicase, the “binding affinity to helicase” value was “high binding affinity”. In addition, the “binding affinity to 3CLpro” value on 3CLpro is recorded as “high binding affinity”.
`O=c1cc(-c2ccc(O)c(O)c2)oc2cc(O)cc(O)c12` [Luteolin, luteolin]: the “binding affinity to S2 subunit of SARS-CoV” value on S2 subunit of SARS-CoV is recorded as “high binding affinity”. In addition, the “binding affinity to S-protein/ACE2 receptor interface” value in data set [3] is given as “high binding affinity”.
Turning to `O=c1c(O)c(-c2ccc(O)c(O)c2)oc2cc(O)cc(O)c12` [Quercetin, quercetin], the “inhibition of SARS-CoV 3CLpro” value at SARS-CoV 3CLpro is on record as “inhibits”. In addition, in data set [3], the “binding affinity to S-protein/ACE2 receptor interface” value is “significant binding affinity”.
In the case of `[Zn+2]` [Zinc ions], the “inhibition of SARS-CoV RdRp” value at SARS-CoV RdRp is “direct inhibition”. In addition, the “inhibition of SARS-CoV 3CLpro” value on SARS-CoV 3CLpro was “can inhibit”. At SARS-CoV PLpro, the “inhibition of SARS-CoV PLpro” value is “can also inhibit”.
Turning to `O=c1c(O)c(-c2cc(O)c(O)c(O)c2)oc2cc(O)cc(O)c12` [myricetin], the “inhibition of SARS-CoV helicase protein” value in data set [4] is on record as “inhibits”.
On to `O=C1O[C@H]([C@@H](O)CO)C(O)=C1O` [vitamin C, ascorbic acid], for which the “effect on number, proliferation, and function of T lymphocytes” value with T lymphocytes was “increase”. Besides, in [5], the “repair of the alveolar epithelial lining surface” value was “stimulates repair”.
Consider `C=C1CC[C@H](O)C/C1=C/C=C1\CCC[C@]2(C)[C@@H]([C@H](C)CCCC(C)C)CC[C@@H]12` [vitamin D, cholecalciferol], for which, in the data set with macrophages, the “expression of anti-inflammatory cytokines by macrophages” value is “increases” and the “expression of pro-inflammatory cytokines by macrophages” value is “reduces”.
